Test results from patent US20100098633A1, “SELECTIVE SEPRASE INHIBITORS” (Molecular Insight Pharmaceuticals, Inc., priority 2008, published 2010).

Biological target: T1, recombinant human seprase (rhFAP) (Homo sapiens, UniProt Q12884)
T1 sequence (Q12884 26-760 limits assumed): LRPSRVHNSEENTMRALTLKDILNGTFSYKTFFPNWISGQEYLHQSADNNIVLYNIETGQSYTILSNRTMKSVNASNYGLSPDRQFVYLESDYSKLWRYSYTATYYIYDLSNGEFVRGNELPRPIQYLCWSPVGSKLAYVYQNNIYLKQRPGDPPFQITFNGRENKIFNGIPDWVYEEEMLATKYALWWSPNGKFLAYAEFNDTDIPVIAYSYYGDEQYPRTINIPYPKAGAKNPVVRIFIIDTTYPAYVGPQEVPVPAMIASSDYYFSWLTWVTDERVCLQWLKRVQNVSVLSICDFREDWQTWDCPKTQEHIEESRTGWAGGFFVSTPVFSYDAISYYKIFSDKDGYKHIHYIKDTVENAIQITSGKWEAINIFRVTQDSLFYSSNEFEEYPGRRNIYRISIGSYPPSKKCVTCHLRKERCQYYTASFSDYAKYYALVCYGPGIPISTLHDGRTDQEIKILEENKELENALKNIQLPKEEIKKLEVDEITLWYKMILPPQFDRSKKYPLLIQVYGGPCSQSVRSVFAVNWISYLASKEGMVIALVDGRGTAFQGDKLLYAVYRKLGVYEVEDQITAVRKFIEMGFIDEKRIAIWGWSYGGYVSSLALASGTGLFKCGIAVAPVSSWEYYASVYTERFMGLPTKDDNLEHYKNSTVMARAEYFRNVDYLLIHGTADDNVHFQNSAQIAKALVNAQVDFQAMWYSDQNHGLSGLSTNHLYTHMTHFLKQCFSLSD
Test: Inhibition of enzymatic activity of recombinant human seprase on Z-Gly-Pro-AMC (fluorescence)
Assay type: biochemical
Details: for IC50: in vitro data against seprase, read-out: FAP (IC50 nM); for remaining activity at 0.005 µM: inhibitor 0.005 μM; for remaining activity at 0.005 µM / remaining activity at 0.05 µM / remaining activity at 0.5 µM / remaining activity at 5 µM / remaining activity at 500 µM: initial velocity normalized to control without test compound, 50 μM Z-Gly-Pro-AMC, read-out: Percent of Control; for remaining activity at 0.05 µM: inhibitor 0.05 μM; for remaining activity at 0.5 µM: inhibitor 0.5 μM; for remaining activity at 5 µM: inhibitor 5 μM; for remaining activity at 500 µM: inhibitor 500 μM
Method: In vitro assaying of compounds for inhibition of dipeptidyl peptidase activity of seprase and DPP-IV can be achieved following the described in Edosada C. Y. et al. J. Biolog. Chem. 2006, 281, 7437-7444.
Selected test compounds were examined for their ability to inhibit the enzymatic activity of recombinant human seprase (rhFAP) on the substrate, benzyloxycarbonyl-Gly-Pro-7-amido-4-methylcoumarin (Z-Gly-Pro-AMC). In brief, 10 μg rhFAP was added to 50 μM Z-Gly-Pro-AMC in the presence of increasing concentrations of test compound, and enzymatic activity was determined by monitoring fluorescence (Ex. 355 nm/Em. 460 nm). Compound 1051 is the known inhibitor, Cbz-Gly-boroproline. Initial velocity of the reaction was calculated and normalized to control reactions conducted in the absence of test compound.
The inhibition was measured by the half maximal inhibitory concentration (IC50) of a compound of interest. The IC50 indicates how much of a particular compound is needed to inhibit seprase by half.

Molecule | IC50 [nM] | further results
O=C(NCC(=O)N1CCCC1B(O)O)c1ccccc1I (stereo not drawn) [Compound 1023, 1-(2-(2-iodobenzamido)acetyl)pyrrolidin-2-ylboronic acid] | 7 | remaining activity at 0.005 µM: 42%; remaining activity at 0.05 µM: 0%; remaining activity at 0.5 µM: 0%; remaining activity at 5 µM: 0%; remaining activity at 500 µM: 0%
O=C(NCC(=O)N1CCCC1B(O)O)c1cc(I)ccc1F (stereo not drawn) [Compound 1029, 1-(2-(2-fluoro-5-iodobenzamido)acetyl)pyrrolidin-2-ylboronic acid] | 8 | 
N#Cc1ccc(I)cc1C(=O)NCC(=O)N1CCCC1B(O)O (stereo not drawn) [Compound 1031, 1-(2-(2-cyano-5-iodobenzamido)acetyl)pyrrolidin-2-ylboronic acid] | 262 | 
O=C(NCC(=O)N1CCCC1B(O)O)c1cc(I)ccn1 (stereo not drawn) [Compound 1033, 1-(2-(4-iodopicolinamido)acetyl)pyrrolidin-2-ylboronic acid] | 500 | 
NC(Cc1ccc(I)cc1)C(=O)NCC(=O)N1CCCC1B(O)O (stereo not drawn) [Compound 1035, 1-(2-(2-amino-3-(4-iodophenyl)propanamido)acetyl)pyrrolidin-2-ylboronic acid] | 340 | 
O=C(CN1CCN(Cc2cccc(I)c2)CC1)N1CCCC1B(O)O (stereo not drawn) [Compound 1036, 1-(2-(4-(3-iodobenzyl)piperazin-1-yl)acetyl)pyrrolidin-2-ylboronic acid] | 37 | 
N#C[C@@H]1CCCN1C(=O)CNC(=O)c1ccc(I)cc1 [Compound 1039, (S)-N-(2-(2-cyanopyrrolidin-1-yl)-2-oxoethyl)-4-iodobenzamide] | 511 | 
N#C[C@@H]1CCCN1C(=O)CNC(=O)c1ccc(I)cc1Cl [Compound 1041, (S)-2-chloro-N-(2-(2-cyanopyrrolidin-1-yl)-2-oxoethyl)-4-iodobenzamide] | 692 | 
N#C[C@@H]1CCCN1C(=O)CNC(=O)c1ccccc1I [Compound 1043, (S)—N-(2-(2-cyanopyrrolidin-1-yl)-2-oxoethyl)-2-iodobenzamide] | 115 | 
N#Cc1ccc(I)cc1C(=O)NCC(=O)N1CCC[C@H]1C#N [Compound 1044, (S)-2-cyano-N-(2-(2-cyanopyrrolidin-1-yl)-2-oxoethyl)-5-iodobenzamide] | 23700 | 
N#C[C@@H]1CCCN1C(=O)CNC(=O)[C@@H](CC(=O)O)NC(=O)c1cccc(I)c1 [Compound 1048, (R)-4-(2-((S)-2-cyanopyrrolidin-1-yl)-2-oxoethylamino)-3-(3-iodobenzamido)-4-oxobutanoic acid] | 7410 | 
Re(CO)3-2,2′-(2,2′-(6-(2-(2-boronopyrrolidin-1-yl)-2-oxoethylamino)-6-oxohexyl azanediyl)bis(methylene)bis(1H-imidazole-2,1-diyl))diacetic acid [Compound 1020] | 4 | 
Re(CO)3-(S)-2,2′-(2,2′-(6-(2-(2-cyanopyrrolidin-1-yl)-2-oxoethylamino)-6-oxohexylazanediyl)bis(methylene)bis(1H-imidazole-2,1-diyl))diacetic acid [Compound 1022] | 236 | 
Re(CO)3[1-(2-(6-(bis(pyridin-2-ylmethyl)amino)hexanamido) acetyl)pyrrolidin-2-ylboronic acid] [Compound 1014] | 21 | 

More lines, in order of falling IC50, values ahead:

IC50 [nM] | Molecule | further results
24500 | NC(Cc1ccc(I)cc1)C(=O)NCC(=O)N1CCCC1N (stereo not drawn) [Compound 1061] | 
1440 | N#C[C@@H]1CCCN1C(=O)CNC(=O)c1cc(I)cc(C(=O)O)c1 [Compound 1045, (S)-3-(2-(2-cyanopyrrolidin-1-yl)-2-oxoethylcarbamoyl)-5-iodobenzoic acid] | 
1150 | N#C[C@@H]1CCCN1C(=O)CN1CCN(Cc2cccc(I)c2)CC1 [Compound 1050, (S)-1-(2-(4-(3-iodobenzyl)piperazin-1-yl)acetyl)pyrrolidine-2-carbonitrile] | 
970 | N#C[C@H]1CCCN1C(=O)CNC(=O)c1cccc(I)c1 [Compound 1046, (R)-N-(2-(2-cyanopyrrolidin-1-yl)-2-oxoethyl)-3-iodobenzamide] | 
953 | N#C[C@@H]1CCCN1C(=O)CNCc1cccc(I)c1 [Compound 1049, (S)-1-(2-(3-iodobenzylamino)acetyl)pyrrolidine-2-carbonitrile] | 
785 | N#C[C@@H]1CCCN1C(=O)CNC(=O)c1cc(I)ccc1Cl [Compound 1042, (S)-2-chloro-N-(2-(2-cyanopyrrolidin-1-yl)-2-oxoethyl)-5-iodobenzamide] | 
67 | O=C(NCC(=O)N1CCCC1B(O)O)OCc1ccccc1 (stereo not drawn) [Compound 1051, Cbz-Gly-boroproline, reference compound] | remaining activity at 0.005 µM: 81%; remaining activity at 0.05 µM: 46%; remaining activity at 0.5 µM: 1%; remaining activity at 5 µM: 0%; remaining activity at 500 µM: 0%
35 | N#C[C@@H]1CCCN1C(=O)CNC(=O)c1cccc(I)c1 [Compound 1040, (S)-N-(2-(2-cyanopyrrolidin-1-yl)-2-oxoethyl)-3-iodobenzamide] | IC50 values against seprase (in words): low nanomolar range
20 | Re(CO)3[1-(2-(6-(bis((1-methyl-1H-imidazol-2-yl)methyl)amino) hexanamido)acetyl)pyrrolidin-2-ylboronic acid] [Compound 1018] | 
11 | Cc1ccc(I)cc1C(=O)NCC(=O)N1CCCC1B(O)O (stereo not drawn) [Compound 1032, 1-(2-(5-iodo-2-methylbenzamido)acetyl)pyrrolidin-2-ylboronic acid] | 
11 | O=C(NCC(=O)N1CCCC1B(O)O)Nc1ccc(I)cc1 (stereo not drawn) [Compound 1034, 1-(2-(3-(4-iodophenyl)ureido)acetyl)pyrrolidin-2-ylboronic acid] | 
5 | O=C(NCC(=O)N1CCCC1B(O)O)c1cc(I)ccc1Cl (stereo not drawn) [Compound 1027, 1-(2-(2-chloro-5-iodobenzamido)acetyl)pyrrolidin-2-ylboronic acid] | 
5 | O=C(NCC(=O)N1CCCC1B(O)O)c1cc(I)ccc1Br (stereo not drawn) [Compound 1028, 1-(2-(2-bromo-5-iodobenzamido)acetyl)pyrrolidin-2-ylboronic acid] | 
3 | O=C(NCC(=O)N1CCCC1B(O)O)c1ccc(I)cc1 (stereo not drawn) [Compound 1024, 1-(2-(4-iodobenzamido)acetyl)pyrrolidin-2-ylboronic acid] | IC50 values against seprase (in words): low nanomolar range; remaining activity at 0.005 µM: 22%; remaining activity at 0.05 µM: 0%; remaining activity at 0.5 µM: 0%; remaining activity at 5 µM: 0%; remaining activity at 500 µM: 0%
3 | O=C(NCC(=O)N1CCCC1B(O)O)c1ccc(I)cc1Cl (stereo not drawn) [Compound 1026, 1-(2-(2-chloro-4-iodobenzamido)acetyl)pyrrolidin-2-ylboronic acid] | 
2 | O=C(NCC(=O)N1CCCC1B(O)O)c1cccc(I)c1 (stereo not drawn) [Compound 1025, 1-(2-(3-iodobenzamido)acetyl)pyrrolidin-2-ylboronic acid] | remaining activity at 0.005 µM: 0%; remaining activity at 0.05 µM: 0%; remaining activity at 0.5 µM: 0%; remaining activity at 5 µM: 0%; remaining activity at 500 µM: 0%
2 | O=C(NCC(=O)N1CCCC1B(O)O)c1ccc2cc(I)ccc2c1 (stereo not drawn) [Compound 1030, 1-(2-(6-iodo-2-naphthamido)acetyl)pyrrolidin-2-ylboronic acid] | IC50 values against seprase (in words): low nanomolar range
